This is an account of results in PMC7320011, “Rationally designed ruthenium complexes for 1- and 2-photon photodynamic therapy” (Nature Communications, 2020).

Molecules are shown by their SMILES. Like-named read-outs stand apart in the source and are kept apart here. Some results are limits rather than exact numbers.

Data set [1] has as its system HeLa MCTS. Kind of data set: (Photo-)cytotoxicity on 3D MCTS (ATP concentration). The class given is cell-based, human. As to conditions: 1-3 as chloride salts. As for the experimental part:
The cytotoxicity of the compounds in 3D MCTS was assessed by measurement of the ATP concentration. MCTS were treated with increasing concentrations of the compound (2% DMSO, v%) by replacing 50% of the media with drug supplemented media and incubation for 12 h. After this time, the MCTS were divided in three identical groups. The first group was strictly kept in the dark. The second group was exposed to a 1-Photon irradiation (500 nm, 16.7 min, 10.0 mW cm^−2, and 10 J cm^−2) using a LED light source and the third group was exposed to a 2-Photon irradiation (800 nm, 10 J cm^−2 with a section interval of 5 μm) using a LSM 880 (Carl Zeiss, Germany) laser scanning confocal microscope equipped with a Coherent Chameleon 2-Photon laser. After the irradiation, all groups were incubated additional 48 h. The ATP concertation was measured using a CellTiter-Glo 3D Cell Viability kit (Promega) by measuring the generated chemiluminescence with an infinite M200 PRO (Tecan) plate reader.

For data set [2], the system named is HeLa MCTS. The data set is described as follows: 3D MCTS growth inhibition assay. The class given is cell-based, human. The note with it: dark; 1–7 and H2TPP 20 μM, cisplatin 10 μM and 30 μM. As to the method:
MCTS were treated with the sample (20 μM 1–7, 20 μM tetraphenylporphyrin H2TPP, 10 μM cisplatin, 30 μM cisplatin, 2% DMSO, v%) by replacing 50% of the media with drug supplemented media in the dark for 3 days. After this time, the MCTS were exposed to a 1-Photon (500 nm, 16.7 min, 10.0 mW cm^−2, and 10 J cm^−2) irradiation using a LED light source or 2-Photon (800 nm, 10 J cm^−2 with a section interval of 5 μm) irradiation using a LSM 880 (Carl Zeiss) laser scanning confocal microscope equipped with a Coherent Chameleon 2-Photon laser. The cell culture media was replaced every 2 days. The integrity and diameter of the MCTs was monitored with an Axio Observer Z1 (Carl Zeiss) phase contrast microscope every 24 h.

Data set [3] relates to human glioblastoma astrocytoma (U373) cells.
Method: (§1) A total of 4 × 10^3 cells were seeded on 96-well plates and allowed to adhere overnight. The cells were treated with increasing concentrations of the sample diluted in cell media achieving a total volume of 200 μL. The cells were incubated with the sample for 8 h and, after this time, the medium refreshed. To study the phototoxic effect of the sample, the cells were exposed to 480 nm (spectral half-width: 20 nm, 10 min, 5.2 mW cm^−2, 3.1 J cm^−2) or 540 nm (spectral half-width: 30 nm, 40 min, 4.0 mW cm^−2, 9.5 J cm^−2) light using an Atlas Photonics LUMOS BIO irradiator. To study the dark cytotoxicity of the sample, the cells were not irradiated and the medium exchanged. The cells were grown for an additional 40 h at 37 °C. After this time, the medium was replaced with fresh medium containing resazurin with a final concentration of 0.2 mg mL^−1. The cells were incubated for 4 h and the amount of the fluorescent product resorufin determined (λex = 540 nm, λem = 590 nm) with a SpectraMax M2 Microplate Reader (Molecular Devices). The obtained data was analyzed with the GraphPad Prism software.
In data set [4] the test system is human cervical carcinoma (HeLa) cells. Kind of data set: (Photo-)cytotoxicity on 2D cell monolayers, HeLa. The note with it: for IC50: 1-3 as chloride salts. The class given is cell-based.
Method: as §1
Data set [5] relates to mouse colon carcinoma (CT-26) cells. The data set is described as follows: (Photo-)cytotoxicity on 2D cell monolayers, CT-26.
Method: as §1
For data set [6] the test system is unchanged.
Method: as §1
The test system of data set [7] is noncancerous retinal pigment epithelium (RPE-1) cells. Kind of data set: (Photo-)cytotoxicity on 2D cell monolayers, RPE-1.
Data set [8] shares this test system.
Data set [9] can be described thus: Photostability (absorption spectra upon irradiation). The class given is physicochemical. The note with it: 450 nm, 0 to 10 min (13.2 J cm^−2), air-saturated acetonitrile. As to the method:
The sample was prepared in an air-saturated acetonitrile solution. Using a Atlas Photonics LUMOS BIO irradiator, the sample was constantly irradiated at 450 nm in time intervals from 0 to 10 min (13.2 J cm^−2). The absorption spectra from 350 to 700 nm was monitored with a SpectraMax M2 Microplate Reader (Molecular Devices) at each time interval. As positive and negative controls, respectively, [Ru(2,2′-bipyridine)3]Cl2 and Protoporphyrin IX were used.

The test system of data set [10] is human glioblastoma astrocytoma (U373) cells. Kind of data set: (Photo-)cytotoxicity on 2D cell monolayers, U373.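 Note: Resazurin-to-resorufin fluorescence viability readout, 8 h compound exposure then medium change, light dose 3.1 J cm^−2 at 480 nm or 9.5 J cm^−2 at 540 nm, analysed 40 h later.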
Method: as §1
On the set-up of data set [11]: method as in PMID 10907495. The note with it: cited from earlier work.
On the set-up of data set [12]: method as in earlier work. The note with it: acetonitrile; cited from earlier work.
Setting [13] is: Homo sapiens, dark, read-out: IC50 dark.

As for `C1=Cc2nc1c(-c1ccccc1)c1nc(c(-c3ccccc3)c3ccc([nH]3)c(-c3ccccc3)c3ccc([nH]3)c2-c2ccccc2)C=C1` [H2TPP, tetraphenylporphyrin, reference compound], the 50% inhibitory concentration (IC50) (in general, the concentration at which inhibition is half-maximal) is more than 100 µM in the data set on HeLa MCTS [1] (setting [13]); more than 100 µM in the data set on HeLa MCTS [1] (Homo sapiens, light or radiation study, 1P 500 nm, read-out: IC50 1P irradiation (500 nm, 10 J cm-2)); more than 100 µM in the data set on HeLa MCTS [1] (Homo sapiens, light or radiation study, 2P 800 nm, section interval 5 μm, read-out: IC50 2P irradiation (800 nm, 10 J cm-2)). The “tumor growth inhibition effect (MCTS volume)” value with HeLa MCTS [2] is “do not show any inhibitory effect”.
Regarding `C=CC1=C(C)c2cc3[nH]c(cc4nc(cc5[nH]c(cc1n2)c(C)c5CCC(=O)O)C(CCC(=O)O)=C4C)c(C)c3C=C` [PpIX, Protoporphyrin IX, reference compound], the IC50 is 3.6 µM in data set [3]; 2.5 µM in data set [4] (Homo sapiens, 10 min, 480 nm, read-out: IC50 480 nm (10 min, 3.1 J cm-2)); 2.1 µM in data set [4] (Homo sapiens, 40 min, 540 nm, read-out: IC50 540 nm (40 min, 9.5 J cm-2)); more than 100 µM in data set [4] (setting [13]); 4.1 µM in [5] (Mus musculus, CT26, 40 min, read-out: IC50 540 nm (40 min, 9.5 J cm-2)); more than 100 µM in [5] (Mus musculus, CT26, read-out: IC50 dark). The IC50 is 3.5 µM in [6]; 3.3 µM in data set [7] (Homo sapiens, RPE-1, 40 min, read-out: IC50 540 nm (40 min, 9.5 J cm-2)); more than 100 µM in [7] (Homo sapiens, RPE-1, read-out: IC50 dark); 3.8 µM in data set [8]; 3.3 µM in [10] (Homo sapiens, U373 MG, 10 min, read-out: IC50 480 nm (10 min, 3.1 J cm-2)); more than 100 µM in data set [10] (Homo sapiens, U373 MG, read-out: IC50 dark). In addition, the “PI (480 nm)” value is reported as more than 40.0 in data set [4] (dark vs 480 nm); more than 28.6 in data set [5] (CT-26, dark vs 480 nm); more than 26.3 in data set [7] (RPE-1, dark vs 480 nm); more than 30.3 in data set [10] (U373, dark vs 480 nm). The “PI (540 nm)” value is recorded as more than 47.6 in data set [4] (dark vs 540 nm); more than 24.4 in data set [5] (CT-26, dark vs 540 nm); more than 30.3 in data set [7] (RPE-1, dark vs 540 nm); more than 27.8 in [10] (U373, dark vs 540 nm). Also, in data set [9], the “photostability (change of absorption spectra upon irradiation)” value is listed as “drastically changed”.
On to `O=C([O-])c1c(Cl)c(Cl)c(Cl)c(Cl)c1-c1c2cc(I)c(=O)c(I)c-2oc2c(I)c([O-])c(I)cc12.[Na+].[Na+]` [Rose Bengal], for which, in data set [11], the “Φ, singlet oxygen quantum yield of the reference” value is on record as 76%.
For `[Cl-].[Cl-].[Ru+2].c1ccc(-c2ccccn2)nc1.c1ccc(-c2ccccn2)nc1.c1ccc(-c2ccccn2)nc1` [[Ru(2,2′-bipyridine)3]Cl2], the “Φem, luminescence quantum yield of the reference” value in data set [12] was 5.9%.
On to `N.N.[Cl][Pt][Cl]` [cisplatin, reference compound], for which the half-maximal inhibitory concentration (IC50) in [4] (dark, read-out: IC50 dark) came to 10.5 µM; in data set [5] (read-out: IC50 dark, CT-26, dark, 1-3 as chloride salts), 6.5 µM; in data set [7] (read-out: IC50 dark, RPE-1, dark, 1-3 as chloride salts), 29.3 µM; in data set [10] (read-out: IC50 dark, U373, dark, 1-3 as chloride salts) it was 17.6 µM; in the data set with HeLa MCTS [1] (dark, read-out: IC50 dark), 18.6 ± 1.3 µM. Moreover, the “tumor growth inhibition effect (MCTS volume)” value in the data set on HeLa MCTS [2] was “weak effect on the tumor growth”.
